Reference: US7528106B2, “Compositions and methods for treatment of neovascular diseases” (The Scripps Research Institute, priority 2004, dated 2009)

System: deep retinal vascular network formation in neonatal Balb/C mice
Experiment: Neonatal mouse retinal angiogenesis model
Format: in vivo
Text: Description of the Model. Immediately after birth (postnatal day zero; “P0”), retinal vasculature is virtually absent in the mouse. By four weeks after birth (P28) the retina has attained an adult pattern of retinal vessels coincident with the onset of vision. Physiological neovascularization of the retina occurs during this period via a stereotypical, biphasic developmental pattern of angiogenesis. During the primary phase of retinal vascular development, spoke-like peripapillary vessels grow radially from the central retinal artery and vein, becoming progressively interconnected by a capillary plexus that forms between them. This “inner retinal plexus” grows in area, volume and complexity, centrifugally, as a monolayer within the nerve fiber layer during the first seven to ten days following birth.
The second phase of retinal vessel formation begins between postnatal days 7 (P7) and 10 (P10) when collateral branches sprout from capillaries of the superficial plexus and penetrate into the retina where their tips branch and anastamose laterally to form a planar “deep vascular plexus”. While the deep vascular plexus is in place by P14, it undergoes extensive remodeling from P14 to P21. It is of interest to note that the formation of these vascular networks in the neonatal mouse are strikingly similar to the events occurring in the third trimester human fetus.
Advantages and Quantification of the Model. The reproducibility of the murine retinal development process and its easy accessibility in neonatal animals provide an opportunity to assess the efficacy of antiangiogenic compounds in a physiologically relevant model of angiogenesis. Additional advantages of the neonatal mouse model are the ability to qualitatively and quantitatively evaluate the angiostatic effect of putative antagonists of angiogenesis. Angiostatic activity was evaluated based upon the degree of angiogenesis in the deep, outer retinal vascular layer (secondary layer) that develops between P8 and P12. The appearance of the inner blood vessel network (primary layer) was evaluated for normal development and signs of toxicity.
Preparation of Compositions. Peptidomimetic integrin signaling inhibitor Compound (1) is solubilized in PBS at a concentration of about 20 mg/ml in PBS (1× concentration). T2-TrpRS is solubilized in PBS at a concentration of about 0.5 mg/ml (1× concentration). VEGF aptamer (pegaptanib sodium; Compound (2)) is solubilized in PBS at a concentration of about 2 mg/ml (1× concentration) to achieve an injection of approximately 1 μg/eye at 1× concentration. For all combination assays the compounds were prepared at 2 or 3 times the 1× concentration of each material and then combined to produce a final solution containing each individual compound at the same concentration as was used alone (e.g., 1×, 0.5×, 0.25× or 0.1×, as the case may be). For all assays, a single injection of 0.5 μl of PBS solutions of the drugs was administered intravitreally regardless of the number of compounds being injected. As used herein, the term “0.1×” refers to one tenth of the 1× concentration of a given material, “0.25×” refers to one quarter of the 1× concentration of a given material, “0.5×” refers to one half of the 1× concentration of a given material, and so forth for similar designations.
An in vivo angiogenesis assay in the neonatal mouse (Balb/C, The Jackson Laboratory, Bar Harbor, Me.) was used to evaluate the angiostatic activity of integrin signaling inhibitor Compound (1), T2-TrpRS, and VEGF aptamer Compound (2). Intravitreous injection and retina isolation was performed with a dissecting microscope (SMZ 645, Nikon, Japan). […] The samples (0.5 μl) were injected with a Hamilton syringe fitted with a 32-gauge needle (Hamilton Company, Reno, Nev.). The injection was made between the equator and the corneal limbus. During injection, the location of the needle tip was monitored by direct visualization to determine that it was in the vitreal cavity. […]

[1] = Ex 1, 0.5× (1×=2 mg/ml), intravitreal P8, read P12
[2] = Ex 2, 0.1× of each (1×: T2-TrpRS 0.5, Comp. (2) 2 mg/ml), intravitreal P4, read P12
[3] = Ex 3, 1× of each (T2-TrpRS 0.5, Comp. (2) 2 mg/ml), intravitreal P4, read P12
[4] = Ex 4, 0.5× (1×=2 mg/ml), intravitreal P4, read P12
[5] = Ex 6, 1× of each (T2-TrpRS 0.5, Comp. (2) 2 mg/ml), intravitreal P4, read P12
[6] = Ex 7, 1× (T2-TrpRS 0.5, Comp. (2) 2 mg/ml), intravitreal P4, read P12
[7] = Ex 8, 0.25× (1×=2 mg/ml), intravitreal P4, read P12
[8] = Ex 9, 1× of each (Comp. (1) 20, Comp. (2) 2, T2-TrpRS 0.5 mg/ml), intravitreal P4, read P12
[9] = Table 12, composite data from the Examples, 1× (Compound (2) 0.5× to 1×)
[10] = Table 13A, 1-2 μg per eye, intravitreal P7, read P12
[11] = Table 13C low dosing, 0.1x (integrin ant. 1.0 μg, VEGF apt. 0.20 μg, T2-TrpRS 0.025 μg)

pegaptanib sodium [Compound (2)]
inhibition of neovascularization (0.1× concentrations (1 μg/eye integrin antagonist, 0.2 μg/eye VEGF aptamer, 0.025 μg/eye T2-TrpRS)): negligible | % of eyes with 0-10% inhibition of deep vascular layer [1]: 20% | % of eyes with 10-25% inhibition of deep vascular layer [1]: 20% | % of eyes with 25-50% inhibition of deep vascular layer [1]: 20% | % of eyes with 50-75% inhibition of deep vascular layer [1]: 20% | % of eyes with 75-100% inhibition of deep vascular layer [1]: 40% | % of eyes with 0-10% inhibition of deep vascular layer [2]: 87.5% | % of eyes with 10-25% inhibition of deep vascular layer [2]: 12.5% | % of eyes with 25-50% inhibition of deep vascular layer [2]: 0% | % of eyes with 50-75% inhibition of deep vascular layer [2]: 0% | % of eyes with 75-100% inhibition of deep vascular layer [2]: 0% | % of eyes with 100% inhibition of deep vascular layer [2]: 0% | % of eyes with >95% inhibition of deep vascular layer [2]: 0% | % of eyes with 0-10% inhibition of deep vascular layer [3]: 37.5% | % of eyes with 10-25% inhibition of deep vascular layer [3]: 12.5% | % of eyes with 25-50% inhibition of deep vascular layer [3]: 12.5% | % of eyes with 50-75% inhibition of deep vascular layer [3]: 12.5% | % of eyes with 75-100% inhibition of deep vascular layer [3]: 25% | % of eyes with 100% inhibition of deep vascular layer [3]: 0% | % of eyes with >95% inhibition of deep vascular layer [3]: 0% | % of eyes with 0-10% inhibition of deep vascular layer [4]: 60% | % of eyes with 10-25% inhibition of deep vascular layer [4]: 30% | % of eyes with 25-50% inhibition of deep vascular layer [4]: 0% | % of eyes with 50-75% inhibition of deep vascular layer [4]: 0% | % of eyes with 75-100% inhibition of deep vascular layer [4]: 10% | % of eyes with 100% inhibition of deep vascular layer [4]: 0% | % of eyes with >95% inhibition of deep vascular layer [4]: 0% | % of eyes with 0-10% inhibition of deep vascular layer [5]: 37.5% | % of eyes with 10-25% inhibition of deep vascular layer [5]: 25% | % of eyes with 25-50% inhibition of deep vascular layer [5]: 12.5% | % of eyes with 50-75% inhibition of deep vascular layer [5]: 25% | % of eyes with 75-100% inhibition of deep vascular layer [5]: 0% | % of eyes with 100% inhibition of deep vascular layer [5]: 0% | % of eyes with >95% inhibition of deep vascular layer [5]: 0% | % of eyes with 0-10% inhibition of deep vascular layer [6]: 25% | % of eyes with 10-25% inhibition of deep vascular layer [6]: 25% | % of eyes with 25-50% inhibition of deep vascular layer [6]: 0% | % of eyes with 50-75% inhibition of deep vascular layer [6]: 12.5% | % of eyes with 75-100% inhibition of deep vascular layer [6]: 37.5% | % of eyes with 100% inhibition of deep vascular layer [6]: 0% | % of eyes with >95% inhibition of deep vascular layer [6]: 0% | % of eyes with 0-10% inhibition of deep vascular layer [7]: 54.5% | % of eyes with 10-25% inhibition of deep vascular layer [7]: 36.4% | % of eyes with 25-50% inhibition of deep vascular layer [7]: 0% | % of eyes with 50-75% inhibition of deep vascular layer [7]: 0% | % of eyes with 75-100% inhibition of deep vascular layer [7]: 9.1% | % of eyes with 100% inhibition of deep vascular layer [7]: 0% | % of eyes with >95% inhibition of deep vascular layer [7]: 0% | % of eyes with 0-10% inhibition of deep vascular layer [8]: 25% | % of eyes with 10-25% inhibition of deep vascular layer [8]: 0% | % of eyes with 25-50% inhibition of deep vascular layer [8]: 12.5% | % of eyes with 50-75% inhibition of deep vascular layer [8]: 12.5% | % of eyes with 75-100% inhibition of deep vascular layer [8]: 50% | % of eyes with 100% inhibition of deep vascular layer [8]: 12.5% | % of eyes with >95% inhibition of deep vascular layer [8]: 25% | % of mice with 0-10% inhibition of deep vascular layer [9]: 39.1% | % of mice with 10-25% inhibition of deep vascular layer [9]: 20% | % of mice with 25-50% inhibition of deep vascular layer [9]: 7.6% | % of mice with 50-75% inhibition of deep vascular layer [9]: 11.9% | % of mice with 75-100% inhibition of deep vascular layer [9]: 21.4% | % of mice with 100% inhibition of deep vascular layer [9]: 2.4% | % of mice with >95% inhibition of deep vascular layer [9]: 4.7% | Percentage of retinas with 0-10% neovascular inhibition [10]: 39.1% | Percentage of retinas with 10-25% neovascular inhibition [10]: 20.0% | Percentage of retinas with 25-50% neovascular inhibition [10]: 7.6% | Percentage of retinas with 50-75% neovascular inhibition [10]: 11.9% | Percentage of retinas with 100% neovascular inhibition [10]: 2.4% | Percentage of retinas with >75% neovascular inhibition [10]: 21.4% | Percentage of retinas with >90% neovascular inhibition [10]: 4.7% | Percentage of retinas with 0-10% neovascular inhibition [11]: 75% | Percentage of retinas with 10-25% neovascular inhibition [11]: 25% | Percentage of retinas with 25-50% neovascular inhibition [11]: 0% | Percentage of retinas with 50-75% neovascular inhibition [11]: 0% | Percentage of retinas with 100% neovascular inhibition [11]: 0% | Percentage of retinas with >75% neovascular inhibition [11]: 0% | Percentage of retinas with >90% neovascular inhibition [11]: 0% | retinas that exhibited over 75% inhibition (monotherapy at optimal dose): 21% | retinas unaffected by injection (monotherapy at the maximum individual dose): around 35%
